According to US10532082B2, “SOCS1-derived peptide for use in chronic complications of diabetes” (Fundació Hospital Universitari Vall d'Hebron-Institut de …, priority 2014, dated 2020):
Where no end group is shown, it is not given here. [ ]: non-standard residue; d: D form. lysine‑palmitate = lysine-palmitate bound at the N-terminal end; pY = N[C@@H](Cc1ccc(OP(=O)(O)O)cc1)C(=O)O

Experiments:
[1] = tested on: streptozotocin diabetic apoE-deficient mice; assay: Atheromatous plaque size and composition in aorta of diabetic mice; format: in vivo; details: STZ apoE mice, i.p.
Description: Apolipoprotein E (apoE)-deficient male mice of 8 weeks of age were made diabetic through streptozotocin injection (125 mg/kg weight in 10 mM citrate, pH 4.5, two consecutive days). After 2 weeks, animals with glycemia greater than 350 mg/dL were randomly distributed in two groups (n=9 animals per group): treated animals (miS1 peptide: 65 μg/day, 200 μL, intraperitoneally, every 2 days for 8 weeks) and controls (vehicle). The weight and glycemia (colorimetric assay) were controlled throughout the study period.
At the end of the study, the anesthetized animals were perfused with saline and sacrificed, processing the tissues immediately. In renal cortex (paraffin sections, 5 μm) the glomerular and tubulointerstitial morphology was studied by means of PAS and Masson trichrome staining and the lesions were evaluated in a double-blind and semi-quantitative manner in a scale of 0-3. Renal fibrosis was determined by means of Picro-Sirius red staining and the infiltrating inflammatory cells (F4/80+ macrophages and CD3+ T-lymphocytes) by immunohistochemistry. In the aorta, the root/arch zone (serial cryosections of 8 μm from the valves to an extension of 1000 μm) was stained with Oil-red-O/hematoxylin and the area of the atherosclerotic lesion was quantified (Metamorph program). Plaque stability was assessed by collagen fiber staining with Picro-Sirius red and α-actin immunofluorescence. The inflammatory component was determined by means of immunohistochemistry for monocyte/macrophages (Moma2). The Image Pro-Plus program was used for quantifying positive stainings. The biochemical parameters in serum (glycated hemoglobin, cholesterol and creatinine) and in urine (albumin and creatinine) were determined by means of conventional commercial kits.

STAT3 = STAT3 activation in cytokine-stimulated macrophages (Western blot); format: cell-based, murine; details: pre-incubation 50-150 ug/mL (Mut 150 ug/mL), IFNγ and IL-6 stimulation
Description: (§1) RAW264.7 macrophages and vascular smooth muscle cells (VSMC) cultured in a medium with 10% fetal bovine serum were used. The cells were synchronized (24 hours without serum), pre-incubated for 90 minutes with different peptide concentrations (miS1 or the control thereof, 50-150 μg/mL) and stimulated with cytokines (IFNγ […]). STAT activation was analyzed by means of Western blot for phosphorylated STAT1/STAT3 isoforms. JAK/STAT pathway-dependent chemokine (CCL2) expression was determined by means of ELISA. Cell viability was analyzed by MTT colorimetric assay and macrophage migration was analyzed by chemotaxis assay.

diabetic mice (db/db) [2] = assay: Retinal apoptosis by TUNEL, topical eye drops; format: in vivo
Description: 8-week old diabetic mice (db/db) received the miS1 peptide in the form of eye drops (5 μL drops in each eye; 10 mg/mL; twice a day for 15 days; n=7 mice). Diabetic mice treated with the non-functional peptide Mut (n=7), treated with vehicle and non-diabetic mice (db/+) were used as controls. The eye drops were directly administered on the upper surface of the cornea of each eye using a micropipette. The weight and glycemia (colorimetric assay) were controlled throughout the study period. On day 15, the drop with the miS1 peptide or vehicle was administered about two hours before autopsy. The animals were euthanized by cervical dislocation and the enucleated eyes were immediately frozen and dorsoventral sections of […] were cut for analyzing retinal morphology and other immunohistochemical analyses.
Glial activation was evaluated by means of GFAP (Glial fibrillar acidic protein) immunofluorescence following the methodology described in other studies (Bogdanov et al. PLoS One. 2014; 9:e97302). The fixed sections were blocked (1% BSA and 10% goat serum in PBS, 2 hours at RT) and incubated with anti-GFAP antibodies (dilution 1:500, 16 hours at 4° C.) followed by a secondary antibody (Alexa 488-conjugated goat anti-rabbit, dilution 1:200). […] The images of diabetic and control samples were taken with identical parameters and the topographic distribution of the GFAP labelling was analyzed in a scale of 0 to 5 (Anderson et al. Clin Ophthalmol 2008; 2(4):801-16). […] Apoptosis was determined by means of TUNEL (Terminal Transferase dUTP Nick-EndLabeling; fluorescence kit) immunohistochemistry using the previously described method (Bogdanov et al. PLoS One. 2014; 9:e97302) and subsequent quantification under a fluorescence microscope. […] The apoptotic cells were identified using green fluorescence [[…] goat-anti-rabbit (Invitrogen) (dilution 1:200 prepared in PBS)]. An excitation wavelength in the interval of 450-565 nm (e.g., 488 nm) was used for evaluation using fluorescence microscopy and the interval of 515-565 nm (green) was used for detection. […]

[3] = tested on: vascular smooth muscle cells (VSMC); assay: Cytokine-induced CCL2 production in VSMC (ELISA); format: cell-based, mouse; details: pre-incubation with peptide, IFNγ and IL-6
Description: as §1

diabetic mice (db/db) [4] = assay: Disruption of the blood-retinal barrier, albumin extravasation; format: in vivo; details: eye drops 50 μg in 5 μL/eye twice a day, 15 days
Description: 8-week old diabetic mice (db/db) received the miS1 peptide in the form of eye drops (5 μL drops in each eye; 10 mg/mL; twice a day for 15 days; n=7 mice). Diabetic mice treated with vehicle (n=7) and non-diabetic mice (db/+) (n=7) were used as controls. The weight and glycemia (colorimetric assay) were controlled throughout the study period. The animals were euthanized on day 15 by cervical dislocation. The disruption of the BRB was evaluated by means of determining albumin permeability.
The paraffin sections were deparaffinized in xylene and rehydrated in a gradual series of ethanol. The sections were fixed in acidic methanol (−20° C.) for 1 minute and washed with 0.01 M PBS solution at pH 7.4. The sections were incubated in a blocking solution (2.5% dry, non-fat milk) for 30 minutes at room temperature. The sections were incubated with a goat anti-human serum albumin primary antibody (1:500, Abcam) overnight at 4° C. After one washing in PBS, the sections were incubated with an Alexa 594 donkey anti-goat secondary antibody (1:200, Molecular Probes) for 1 hour at room temperature. […] The immunofluorescence of albumin was analyzed by means of laser confocal microscopy (Olympus FluoView™ FV1000 confocal microscope, Hamburg, Germany).

[5] = eye drops 50 μg in 5 μL/eye twice a day, 15 days

## miS1: SEQ ID NO 1 DTHFRTFRSHSDYRRI, kinase inhibitory region of murine SOCS1, bound to lysine-palmitate at the N-terminal end, tyrosine phosphorylated ({lysine‑palmitate}-DTHFRTFRSHSD[pY]RRI)
[1]; Oil-red-O/hematoxylin, compared with the control group that received the vehicle
  reduction in the size and extension of atheromatous lesions: 50%
[1]; plaque composition
  collagen and vascular cells content of plaques: higher
  number of macrophages in the atherosclerotic lesions: reduction
STAT3
  STAT3 activation (phosphorylation): reduced STAT1 and STAT3 activation in a dose-dependent manner
Diabetic mice (db/db) [2]; [5]
  apoptosis rate (TUNEL) vs diabetic mice treated with vehicle: significantly lower apoptosis rate
  percentage of apoptotic cells vs non-diabetic mice: No differences
Diabetic mice (db/db) [2]; eye drops 15 days, compared with groups that received Mut peptide or vehicle
  reduction of apoptosis: about 80%
[3]
  reduction of cytokine-induced CCL2 production: 30-40%
Diabetic mice (db/db) [4]
  albumin extravasation (vascular permeability): prevented
